{"source": "paper PMC10721329", "about": "“Quisinostat is a brain-penetrant radiosensitizer in glioblastoma” (JCI Insight, 2023)", "key": {"[1]": {"system": "BT145 cells", "experiment": "Intracellular uptake of QST and level in media, with or without washout (LC-MS/MS)", "assay_type": "cell-based, human", "experimental": "To further understand the kinetics of drug-target engagement in GSCs, we harvested media and BT145 cells at 0, 2, 6, 10, and 24 hours with or without removal of QST (75 nM). At each time point, we measured the intracellular drug levels and concentrations in the cell media. With continuous drug exposure (no washout), the intracellular levels of QST in BT145 increased throughout the incubation period, reaching equilibrium by 10 hours (Supplemental Figure 2A). […] By contrast, in washout experiments (performed 2 hours after spiking cell media with the drug), minimal QST levels were measured intracellularly after drug removal at all time points (Supplemental Figure 2B).\nQST concentrations in specimens were measured using reverse-phase LC on the AB SCIEX QTRAP6500+ LC-MS/MS system by operating electrospray in the positive ion mode. For liquid chromatographic separation, gradient elution was performed using a Phenomenex Kinetex F5 100 Å column (100 × 2.1 mm, 2.6 μm). The initial composition of the mobile phase was 70% phase A (0.1% formic acid in water) and 30% phase B (0.1% formic acid in 1:1 acetonitrile/methanol) with a 0.35 mL/min flow rate. Gradient elution was achieved as follows: mobile phase (B) was maintained at 30% from 0 to 0.3 minutes, increased to 95% from 0.3 to 0.8 minutes, maintained at 95% from 0.8 to 2.5 minutes, and decreased to 30% from 2.5 to 2.8 minutes. The total run time was 3.5 minutes. The internal standard used in this study was D8-infigratinib. The retention times for QST and D8-infigratinib were 1.6 and 1.8 minutes, respectively. Mass-to-charge ratio transitions were as follows: 395.20 → 144.00 (QST) and 568.08 → 321.00 (D8-infigratinib). LC-MS/MS analysis was performed using an Analyst 1.7 Chromatographic Data System. See Supplemental Methods for detailed PK experiments. […]\nCell Media and Lysate Sample Preparation\nCell media and lysates were thawed at room temperature. An aliquot of 20 µL of cell media or lysate was transferred into a micro centrifuge tube followed by protein precipitation with 60 µL of IS-containing methanol precipitation solution. The mixture was vortex-mixed for 10 s and centrifuged at 12000 g at 4 °C for 10 min. A 50-µL aliquot of the supernatant was transferred to an autosampler vial, and 5 µL was injected into the LC-MS/MS system for […]"}, "[2]": {"experiment": "Stability in mouse brain homogenate (perfused, non-perfused) at 37°C", "assay_type": "in vitro ADME", "details": "100 nM; for [QST], % of control: mouse brain homogenate, 37 C; for [QST], % of control / raw response (Data Point): replicates; for %stability ([QST], % of control, Mean) / raw response, Mean / raw response (Data Point): mouse brain, 37C", "experimental": "Hydroxamic acid–based compounds have been reported to display poor stability and high plasma clearance due to the presence of arylesterases and carboxylesterases in rodent blood ([34]). Therefore, we measured the stability of QST in mouse plasma and brain to determine whether drug degradation occurred during our sample preparations and equilibrium dialyses for the determination of unbound drug level (performed at 37°C). […] QST degradation was also observed in mouse brain homogenate (Figure 6B). However, perfusion of mice before brain collection prevented rapid drug degradation in the brain matrix. […] Degradation of QST can also be constrained if plasma and brain samples are processed at 4°C (Supplemental Figure 4A). All subsequent sample preparations were therefore performed on ice-cold baths to avoid degradation of QST in our PK analyses. […] The observed stability is probably due to the absence of esterases in human matrices, which are responsible for degradation of QST ([34]). Because we employed QST in several in vitro studies (Figures 1–4), the stability of the molecule was also tested in the cell media used to culture GSCs (neurobasal medium; see Methods).\nStability Study in Mouse Plasma, Mouse Brain, Human Plasma, Human Brain, and Neural […]\nThe stability of QST was determined in BALB/c mouse plasma, male nude athymic perfused and nonperfused mouse brain homogenate (1:9 w/v of PBS; pH 7.4), human brain (obtained from VRL Eurofins) homogenate (1:4 w/v of PBS; pH 7.4), pooled human plasma (Innovative Research), and neurobasal media. QST stock solutions (1 mM) were prepared in acetonitrile, subsequently diluted in a 40% methanol mixture, and added t o the matrices to make final concentrations of 100 nM or 10 nM. Then 50 or 30 µL of either plasma or brain homogenate containing QST were aliquoted into 1.5-mL microcentrifuge tubes (Eppendorf) and were incubated at either 4 °C or 37 °C for 0, 2, 4, 6, 12, or 24 hours (n = 3 at each time point). […]\nPlasma and brain […]\nhomogenate samples were stored at −80 °C until LC-MS/MS analysis. […]"}}, "note": "“And” between values parts separate entries of the source, which are not always exact repeats. Identical values can stand only once."}
{"smiles": "Cn1cc(CNCC2CCN(c3ncc(C(=O)NO)cn3)CC2)c2ccccc21", "note": "[QST, quisinostat]", "values": [{"measurement": "time to equilibrium of intracellular QST level", "setting": "[1]; BT145, 75 nM QST, continuous exposure", "value": "≤ 10", "unit": "h"}, {"measurement": "Average Cell uptake", "setting": "[1]; no washout, 2 hrs", "value": 7.31, "unit": "nmol/g protein"}, {"measurement": "Media", "setting": "[1]; no washout, 2 hrs", "value": 62.85, "unit": "nM"}, {"measurement": "Media at cell collection", "setting": "[1]; no washout, 2 hrs", "value": 52.25, "unit": "nM"}, {"measurement": "Average Cell uptake", "setting": "[1]; no washout, 6 hrs", "value": 10.61, "unit": "nmol/g protein"}, {"measurement": "Media", "setting": "[1]; no washout, 6 hrs", "value": 67.45, "unit": "nM"}, {"measurement": "Media at cell collection", "setting": "[1]; no washout, 6 hrs", "value": 45.30, "unit": "nM"}, {"measurement": "Average Cell uptake", "setting": "[1]; no washout, 10 hrs", "value": 11.62, "unit": "nmol/g protein"}, {"measurement": "Media", "setting": "[1]; no washout, 10 hrs", "value": 65.15, "unit": "nM"}, {"measurement": "Media at cell collection", "setting": "[1]; no washout, 10 hrs", "value": 39.70, "unit": "nM"}, {"measurement": "Average Cell uptake", "setting": "[1]; no washout, 24 hrs", "value": 11.78, "unit": "nmol/g protein"}, {"measurement": "Media", "setting": "[1]; no washout, 24 hrs", "value": 64.10, "unit": "nM"}, {"measurement": "Media at cell collection", "setting": "[1]; no washout, 24 hrs", "value": 30.75, "unit": "nM"}, {"measurement": "Average Cell uptake", "setting": "[1]; with washout, 0 hrs", "value": 7.31, "unit": "nmol/g protein"}, {"measurement": "Media", "setting": "[1]; with washout, 0 hrs", "value": 62.85, "unit": "nM"}, {"measurement": "Media at cell collection", "setting": "[1]; with washout, 0 hrs", "value": 52.25, "unit": "nM"}, {"measurement": "Average Cell uptake", "setting": "[1]; with washout, 2 hrs", "value": 2.58, "unit": "nmol/g protein"}, {"measurement": "Media", "setting": "[1]; with washout, 2 hrs", "value": 64.35, "unit": "nM"}, {"measurement": "Media at cell collection", "setting": "[1]; with washout, 2 hrs", "value": 3.665, "unit": "nM"}, {"measurement": "Average Cell uptake", "setting": "[1]; with washout, 6 hrs", "value": 3.23, "unit": "nmol/g protein"}, {"measurement": "Media", "setting": "[1]; with washout, 6 hrs", "value": 63.40, "unit": "nM"}, {"measurement": "Media at cell collection", "setting": "[1]; with washout, 6 hrs", "value": 5.31, "unit": "nM"}, {"measurement": "Average Cell uptake", "setting": "[1]; with washout, 10 hrs", "value": 2.72, "unit": "nmol/g protein"}, {"measurement": "Media", "setting": "[1]; with washout, 10 hrs", "value": 66.40, "unit": "nM"}, {"measurement": "Media at cell collection", "setting": "[1]; with washout, 10 hrs", "value": 5.605, "unit": "nM"}, {"measurement": "Average Cell uptake", "setting": "[1]; with washout, 24 hrs", "value": 3.95, "unit": "nmol/g protein"}, {"measurement": "Media", "setting": "[1]; with washout, 24 hrs", "value": 58.55, "unit": "nM"}, {"measurement": "Media at cell collection", "setting": "[1]; with washout, 24 hrs", "value": 3.57, "unit": "nM"}, {"measurement": "[QST], % of control", "setting": "[2]; Non-Perfused, 0 hours", "value": "99.9% and 101.4% and 98.8%"}, {"measurement": "[QST], % of control", "setting": "[2]; Non-Perfused, 2 hours", "value": "90.9% and 101.4% and 87.2%"}, {"measurement": "[QST], % of control", "setting": "[2]; Non-Perfused, 6 hours", "value": "71.4% and 72.9% and 80.4%"}, {"measurement": "[QST], % of control", "setting": "[2]; Non-Perfused, 24 hours", "value": "46.8% and 49% and 47.5%"}, {"measurement": "[QST], % of control", "setting": "[2]; Perfused, 0 hours", "value": "103.7% and 102.4% and 93.9%"}, {"measurement": "[QST], % of control", "setting": "[2]; Perfused, 2 hours", "value": "98.2% and 99.9%"}, {"measurement": "[QST], % of control", "setting": "[2]; Perfused, 6 hours", "value": "98.2% and 97.3%"}, {"measurement": "[QST], % of control", "setting": "[2]; Perfused, 24 hours", "value": "85.9% (2×) and 82.9%"}, {"measurement": "%stability ([QST], % of control, Mean)", "setting": "[2]; Non-perfused, 0 hrs", "value": 100.0, "unit": "%"}, {"measurement": "raw response, Mean", "setting": "[2]; Non-perfused, 0 hrs", "value": 267333}, {"measurement": "raw response (Data Point)", "setting": "[2]; Non-perfused, 0 hrs", "value": "267000 and 271000 and 264000"}, {"measurement": "%stability ([QST], % of control, Mean)", "setting": "[2]; Non-perfused, 2 hrs", "value": 93.1, "unit": "%"}, {"measurement": "raw response, Mean", "setting": "[2]; Non-perfused, 2 hrs", "value": 249000}, {"measurement": "raw response (Data Point)", "setting": "[2]; Non-perfused, 2 hrs", "value": "243000 and 271000 and 233000"}, {"measurement": "%stability ([QST], % of control, Mean)", "setting": "[2]; Non-perfused, 6 hrs", "value": 74.9, "unit": "%"}, {"measurement": "raw response, Mean", "setting": "[2]; Non-perfused, 6 hrs", "value": 200333}, {"measurement": "raw response (Data Point)", "setting": "[2]; Non-perfused, 6 hrs", "value": "191000 and 195000 and 215000"}, {"measurement": "%stability ([QST], % of control, Mean)", "setting": "[2]; Non-perfused, 24 hrs", "value": 47.8, "unit": "%"}, {"measurement": "raw response, Mean", "setting": "[2]; Non-perfused, 24 hrs", "value": 127667}, {"measurement": "raw response (Data Point)", "setting": "[2]; Non-perfused, 24 hrs", "value": "125000 and 131000 and 127000"}, {"measurement": "%stability ([QST], % of control, Mean)", "setting": "[2]; Perfused, 0 hrs", "value": 100.0, "unit": "%"}, {"measurement": "raw response, Mean", "setting": "[2]; Perfused, 0 hrs", "value": 236333}, {"measurement": "raw response (Data Point)", "setting": "[2]; Perfused, 0 hrs", "value": "245000 and 242000 and 222000"}, {"measurement": "%stability ([QST], % of control, Mean)", "setting": "[2]; Perfused, 2 hrs", "value": 98.7, "unit": "%"}, {"measurement": "raw response, Mean", "setting": "[2]; Perfused, 2 hrs", "value": 233333}, {"measurement": "raw response (Data Point)", "setting": "[2]; Perfused, 2 hrs", "value": "232000 and 236000"}, {"measurement": "%stability ([QST], % of control, Mean)", "setting": "[2]; Perfused, 6 hrs", "value": 97.6, "unit": "%"}, {"measurement": "raw response, Mean", "setting": "[2]; Perfused, 6 hrs", "value": 230667}, {"measurement": "raw response (Data Point)", "setting": "[2]; Perfused, 6 hrs", "value": "232000 and 230000"}, {"measurement": "%stability ([QST], % of control, Mean)", "setting": "[2]; Perfused, 24 hrs", "value": 84.9, "unit": "%"}, {"measurement": "raw response, Mean", "setting": "[2]; Perfused, 24 hrs", "value": 200667}, {"measurement": "raw response (Data Point)", "setting": "[2]; Perfused, 24 hrs", "value": "203000 and 196000"}]}
